The results in this text go back to patent publication US20210382039A1, “METHOD FOR ASSESSING THE ABILITY OF A SUBSTANCE OR OF A COMPOSITION TO PREVENT, SLOW OR ELIMINATE THE SIGNS OF AGEING OF THE SKIN OR OF THE LIPS” (SOCIETE D'EXPLOITATION DE PRODUITS POUR LES INDUSTRIES …, priority 2018, published 2021).

For test [1], the system named is β-galactosidase. Briefly: Contagious aging (bystander effect) model: β-galactosidase activity by X-gal staining in R6 young fibroblasts treated with product, then MCR20 conditioned medium. It is filed as cell-based. As to conditions: R6 passage young human dermal fibroblasts, treated then placed in contact with MCR20 conditioned medium; compositions diluted in 1,3-propanediol to 0.1% by mass.
Experimental: Measurement of the activity of the β-galactosidase enzyme is performed at the metabolic level, and even more particularly with a measurement involving colorimetric enzymatic detection.
Briefly, the β-galactosidase present in the cells reacts specifically with one of its substrates, X-gal (or 5-bromo-4-chloro-3-indolyl-β-D-galactopyranoside (C14H15BrClNO6)) which is deposited on the cell lawns. This substrate is a galactoside, a galactose heteroside, bonded to a substituted indole nucleus.
The particular process thus comprises the following steps: • Step i) of culturing of culturing human dermal fibroblasts, taken at the R19 passage in T25 flasks, • Step ii) of amplification of the cells obtained on conclusion of step i) to obtain a medium conditioned with senescent cells or “MC R20”. Amplification of the cells obtained on conclusion of step i) is performed by seeding said cells in Petri dishes at 0.3 M/Petri dish. After amplification for 4 days in Petri dishes, the culture medium of all the dishes was changed and then recovered after 48 hours of incubation. […]

Test [2] concerns extracellular interleukin IL-6. The experiment in a line: Contagious aging (bystander effect) model: extracellular IL-6 by ELISA in R6 young fibroblasts treated with product, then MCR20 conditioned medium. The note with it: for Extracellular IL-6, N1i: R6 passage young human dermal fibroblasts, treated then placed in contact with MCR20 conditioned medium, compositions diluted in 1,3-propanediol to 0.1% by mass. It is filed as cell-based, human. Background: In an ELISA, binding on a coated surface is turned into a signal by an enzyme label.
Experimental: This method uses a specific antibody for human IL-6 attached to the bottom of the wells of a measuring plate. The samples to be assayed are added to the wells and the IL-6 present in the samples binds to the immobilized antibody. The wells are then washed and another biotinylated anti-human IL-6 antibody is added.
The wells are once again rinsed to remove the nonbound antibody, and streptavidin conjugated to the enzyme HRP (horseradish peroxidase) is added to the wells. The wells are once again rinsed and the HRP substrate tetramethylbenzidine is added to the wells.
The intensity of the color develops proportionately to the amount of IL-6 bound. The “stop” solution changes the color from blue to yellow, and the color intensity is measured at 450 nm by spectrophotometry. The IL-6 concentration is calculated by referring to a calibration range.
The particular process thus comprises the following steps: • Step i) of culturing of culturing human dermal fibroblasts, taken at the R19 passage in T25 flasks, • Step ii) of amplification of the cells obtained on conclusion of step i) to obtain a medium conditioned with senescent cells or “MC R20”. Amplification of the cells obtained on conclusion of step i) is performed by seeding said cells in Petri dishes at 0.3 M/Petri dish. After amplification for 4 days in Petri dishes, the culture medium of all the dishes was changed and then recovered after 48 hours of incubation. This recovered medium corresponds to the medium conditioned with senescent cells containing the SMS mediators (MCR20). • Step iii) of culturing human dermal fibroblasts, taken at the R5 passage in T25 flasks, • a step iv) of amplification of the cells obtained on conclusion of step iii) to obtain to obtain “young” or “R6” cells in the amplification phase, Steps iii) and iv) are performed in parallel with steps i) and ii).

Take `OCCCO` [1,3-propanediol]: the “β-galactosidase, N2i” value in test [1] was “N2i = 13.40 ± 2.69 number of “blue” positive cells/total number of cells”. Moreover, in test [2] (N1 = 8.96 (untreated, unstressed), N10 = 41.38 (untreated, MCR20)), the “Ratio R1=[(N10−N1i)×100]/[(N10−N1)] for extracellular IL-6” value is on record as “R1 = 13.35”. Further, the “Extracellular IL-6, N1i” value in test [2] is reported as “N1i = 37.05 ± 2.57 pg/μg of proteins”.

Regarding `O=C1O[C@H]([C@@H](O)CO)C(O)=C1O` [vitamin C, ascorbic acid, reference compound], in test [2], the “Extracellular IL-6, N1i” value is listed as “N1i = 27.31 ± 3.87 pg/μg of proteins”.

Take `CC(=O)Oc1c(C)c(C)c2c(c1C)CC[C@@](C)(CCC[C@H](C)CCC[C@H](C)CCCC(C)C)O2` [vitamin E, D-α-tocopheryl acetate, reference compound]: the “β-galactosidase, N2i” value in test [1] is given as “N2i = 2.99 ± 0.45 number of “blue” positive cells/total number of cells”.
